Experimental data reported in patent publication US8906925B2, “Pyrido[4,3-B]indoles containing rigid moieties” (Medivation Technologies, Inc., priority 2008, dated 2014).
Values joined by “and” are separate entries in the source; they are usually repeats but may differ in a detail not shown here. Equal values may be shown once. Read-outs that look alike come from different tables or passages of the source.

Tests used:
[1] = tested on: rat central imidazoline I2 receptor; assay: Central imidazoline I2 radioligand binding ([3H]Idazoxan)
Protocol: To evaluate in radioligand binding assays the activity of compounds of the invention, rat central imidazoline I2 receptor obtained from Wistar Rat cerebral cortex (Brown, C. M. et al., Br. J. Pharmacol. 99:803, 1990) in a modified Tris-HCl buffer (50 mM Tris-HCl buffer, pH 7.4, 0.5 mM EDTA) was used. Compounds of the invention were incubated with 2 nM [^3H]Idazoxan for 30 min. at 25° C. Non-specific binding was estimated in the presence of 1 μM Idazoxan. Receptor proteins were filtered and washed, the filters were then counted to determine [^3H]Idazoxan specifically bound. Compounds were screened at 1 μM or lower, using 1% DMSO as vehicle. Compounds of the invention were tested in this biochemical assay and percent inhibition of specific binding was determined.

[2] = target: T1, human recombinant adrenergic α1D receptor (Homo sapiens, UniProt P25100); assay: Adrenergic α1D radioligand binding ([3H]Prozosin); conditions: compound at 1 μM
T1 construct: expressed in transfected cells; host or cells: human embryonic kidney (HEK-293) cells
T1 sequence (P25100 1-572): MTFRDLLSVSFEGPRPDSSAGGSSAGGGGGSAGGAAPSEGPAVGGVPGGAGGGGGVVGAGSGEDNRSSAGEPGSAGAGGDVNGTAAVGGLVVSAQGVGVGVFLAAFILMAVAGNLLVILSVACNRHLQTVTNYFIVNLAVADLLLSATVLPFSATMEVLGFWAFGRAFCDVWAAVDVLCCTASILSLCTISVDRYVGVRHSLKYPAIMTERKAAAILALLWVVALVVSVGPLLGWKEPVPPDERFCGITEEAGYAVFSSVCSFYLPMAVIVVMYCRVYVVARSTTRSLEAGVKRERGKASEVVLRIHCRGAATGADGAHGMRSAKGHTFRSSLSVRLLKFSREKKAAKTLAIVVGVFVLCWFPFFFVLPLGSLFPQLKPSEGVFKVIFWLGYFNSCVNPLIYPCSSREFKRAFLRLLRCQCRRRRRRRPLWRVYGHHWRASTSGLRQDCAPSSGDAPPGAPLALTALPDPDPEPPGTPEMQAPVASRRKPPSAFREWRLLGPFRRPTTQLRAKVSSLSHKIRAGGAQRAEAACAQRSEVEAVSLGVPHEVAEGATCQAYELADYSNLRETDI
Protocol: Compounds of invention were incubated with 0.6 nM [^3H]Prozosin for 60 min. at 25° C. Non-specific binding was estimated in the presence of 10 μM phentolamine. Receptor proteins were filtered and washed, the filters were then counted to determine [^3H]Prozosin specifically bound. Compounds were screened at 1 μM or lower, using 1% DMSO as vehicle. Biochemical assay results are presented as the percent inhibition of specific binding in Table 9.

[3] = target: T2, human recombinant histamine H2 receptor (Homo sapiens, UniProt P25021); assay: Histamine H2 radioligand binding ([125I]Aminopotentidine); conditions: read-out: Histamine Binding (1 μM) H2, percent inhibition of specific binding, 1 μM
T2 construct: expressed in transfected cells; host or cells: Chinese hamster ovary (CHO) K1 cells
T2 sequence (P25021 whole entry): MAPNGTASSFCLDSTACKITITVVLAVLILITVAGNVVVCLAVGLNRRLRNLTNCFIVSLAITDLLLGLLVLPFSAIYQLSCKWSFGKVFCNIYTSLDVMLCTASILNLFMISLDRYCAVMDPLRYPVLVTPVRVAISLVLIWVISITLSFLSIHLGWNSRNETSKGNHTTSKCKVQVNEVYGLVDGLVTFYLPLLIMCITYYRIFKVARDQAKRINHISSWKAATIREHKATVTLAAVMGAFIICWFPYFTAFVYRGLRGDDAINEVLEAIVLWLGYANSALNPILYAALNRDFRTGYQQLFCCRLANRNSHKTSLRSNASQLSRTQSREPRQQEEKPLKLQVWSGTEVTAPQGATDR
Procedure, shortened: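 CHO-K1 cells expressing human recombinant H2 receptor, 50 mM phosphate buffer pH 7.4; compounds incubated with 0.1 nM [125I]aminopotentidine for 120 min at 25 °C. Nonspecific binding defined with 3 μM tiotidine; specifically bound radioligand counted after filtration and washing.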

[4] = target: T3, human recombinant serotonin (5-Hydroxytryptamine) 5-HT2C receptor (Homo sapiens, UniProt P28335); assay: Serotonin 5-HT2C radioligand binding ([3H]Mesulergine); conditions: read-out: Inhibition of ligand binding, Serotonin 5-HT2C (percent inhibition of specific binding); for inhibition at 1 µM: compound at 1 μM; for inhibition at 0.1 µM: compound at 0.1 μM
T3 construct: expressed in transfected cells; host or cells: Chinese hamster ovary (CHO-K1) cells
T3 sequence (P28335 33-458): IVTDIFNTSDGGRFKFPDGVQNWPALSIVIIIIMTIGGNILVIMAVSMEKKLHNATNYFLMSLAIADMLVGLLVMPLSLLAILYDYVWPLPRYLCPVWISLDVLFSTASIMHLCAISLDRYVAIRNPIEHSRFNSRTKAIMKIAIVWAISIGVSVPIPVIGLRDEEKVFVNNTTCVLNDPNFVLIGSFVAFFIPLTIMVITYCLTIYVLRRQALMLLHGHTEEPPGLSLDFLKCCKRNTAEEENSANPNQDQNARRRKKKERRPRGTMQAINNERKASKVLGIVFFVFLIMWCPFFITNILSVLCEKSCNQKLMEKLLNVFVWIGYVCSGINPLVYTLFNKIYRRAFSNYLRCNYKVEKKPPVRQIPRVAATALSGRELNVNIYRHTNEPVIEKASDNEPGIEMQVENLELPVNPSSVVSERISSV
Procedure, shortened: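 Compounds tested at 1 μM or lower (1% DMSO vehicle) for displacement of 1 nM [3H]Mesulergine over 60 min at 25° C. Specific binding determined by filtration counting, with 1 μM Mianserin defining non-specific binding; values are percent inhibition.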

histamine receptor H1 = histamine receptor H1 (Homo sapiens, UniProt P35367); assay: Histamine H1 radioligand binding ([3H]Pyrilamine); conditions: for inhibition at 1 µM: read-out: Histamine Binding (1 μM) H1, percent inhibition of specific binding, 1 μM
Sequence of histamine receptor H1 (P35367 whole entry): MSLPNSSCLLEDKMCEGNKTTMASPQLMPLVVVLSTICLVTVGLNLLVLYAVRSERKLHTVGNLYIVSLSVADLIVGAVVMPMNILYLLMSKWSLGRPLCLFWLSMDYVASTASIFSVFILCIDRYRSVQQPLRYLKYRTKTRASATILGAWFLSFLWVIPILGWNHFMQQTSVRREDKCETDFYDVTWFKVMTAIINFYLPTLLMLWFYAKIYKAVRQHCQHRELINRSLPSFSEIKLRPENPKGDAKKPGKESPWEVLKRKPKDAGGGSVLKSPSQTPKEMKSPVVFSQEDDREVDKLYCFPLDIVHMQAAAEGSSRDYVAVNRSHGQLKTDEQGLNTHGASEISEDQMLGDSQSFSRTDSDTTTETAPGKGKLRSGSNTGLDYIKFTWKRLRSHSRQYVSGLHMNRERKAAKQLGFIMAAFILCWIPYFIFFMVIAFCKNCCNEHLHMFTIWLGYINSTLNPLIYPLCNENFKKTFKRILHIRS
Procedure, shortened: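 Values are percent inhibition of specific [3H]pyrilamine (1.2 nM) binding with compounds at ≤1 μM (1% DMSO vehicle); 180 min incubation at 25 °C, pH 7.4 Tris buffer, on CHO-expressed human H1 receptor; 1 μM pyrilamine defined nonspecific binding, bound ligand counted after filtration.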

[5] = percent inhibition of specific binding, read-out: Inhibition of ligand binding, Adrenergic α1D
[6] = read-out: Inhibition of ligand binding, Adrenergic α1D (percent inhibition of specific binding)

SMILES	Imidazoline I2 Central (1 μM), percent inhibition of specific binding [1]	inhibition at 1 µM [2, 5]	inhibition at 1 µM [3]	inhibition at 1 µM [4]	inhibition at 1 µM (histamine receptor H1)	inhibition at 1 µM [2, 6]	Imidazoline I2 Central (1 μM), percent inhibition of specific binding ([1]; 1 µM)	inhibition at 0.1 µM [4]	Histamine Binding (1 μM) H1, percent inhibition of specific binding (histamine receptor H1; 1 μM)
Cc1ccc(C(O)Cn2c3c(c4ccccc42)CN(C)CC3)cc1 (racemic) [Compound 53, racemic-2-(1,2,3,4-tetrahydro-2-methylpyrido[4,3-b]indol-5-yl)-1-p-tolylethanol]	78%	55%	58%	82%	47%				
CCN1CCc2c(c3ccccc3n2CC(O)c2ccc(C)cc2)C1 (racemic) [Compound 44, racemic-2-(2-ethyl-1,2,3,4-tetrahydropyrido[4,3-b]indol-5-yl)-1-p-tolylethanol]	46%	35%	26%	36%	54%				
Cc1ccc2c(c1)c1c(n2CC#Cc2ccccn2)CCN(C)C1 [Compound No. 500, 2,3,4,5-tetrahydro-2,8-dimethyl-5-(3-(pyridin-2-yl)prop-2-ynyl)-1H-pyrido[4,3-b]indole]	54%		30%	77%	70%	11%			
Cc1ccc(C(O)Cn2c3c(c4cc(C)ccc42)CN(C)CC3)cc1 (racemic) [Compound 43, racemic-2-(1,2,3,4-tetrahydro-2,8-dimethylpyrido[4,3-b]indol-5-yl)-1-p-tolylethanol]		87%		96%	81%		76% and 79%	81%	
COc1ccc(C(C)(O)Cn2c3c(c4cc(C)ccc42)CN(C)CC3)cc1 (centres unmarked) [Compound 174, 1-(2,8-dimethyl-3,4-dihydro-1H-pyrido[4,3-b]indol-5(2H)-yl)-2-(4-methoxyphenyl)propan-2-ol]		57%	80%	95%	34%			96%	
CN1CCc2c(c3cc(Cl)ccc3n2CC(C)(O)c2cccnc2)C1 (centres unmarked) [Compound 61, 1-(8-chloro-1,2,3,4-tetrahydro-2-methylpyrido[4,3-b]indol-5-yl)-2-(pyridin-3-yl)propan-2-ol]		87%	41%	90%	52%				
CN1CCc2c(c3cc(Cl)ccc3n2/C=C(/c2ccc(F)cc2)C2CC2)C1 [Compound 110, (E)-8-chloro-5-(2-cyclopropyl-2-(4-fluorophenyl)vinyl)-2,3,4,5-tetrahydro-2-methyl-1H-pyrido[4,3-b]indole]		86%	102%	101%	77%			99%	83%
C=C(Cn1c2c(c3cc(Cl)ccc31)CN(C)CC2)c1cccnc1 [Compound 133, 8-chloro-2,3,4,5-tetrahydro-2-methyl-5-(2-(pyridin-3-yl)allyl)-1H-pyrido[4,3-b]indole]		55%	60%	96%	101%				
Cc1ccc2c(c1)c1c(n2CC(O)c2ccc(F)cc2)CCN(C)C1 (centres unmarked) [Compound 172, 2-(2,8-dimethyl-3,4-dihydro-1H-pyrido[4,3-b]indol-5(2H)-yl)-1-(4-fluorophenyl)ethanol]		88%	65%	97%	95%				
COC(=O)c1ccc2c(c1)c1c(n2C#Cc2ccc(F)cc2)CCN(C)C1 [Compound No. 479, methyl 5-((4-fluorophenyl)ethynyl)-2-methyl-2,3,4,5-tetrahydro-1H-pyrido[4,3-b]indole-8-carboxylate]			51%	69%	11%	55%			
